In ChEMBL document CHEMBL5143515, “Identification of new halogen-containing 2,4-diphenyl indenopyridin-5-one derivative as a boosting agent for the anticancer responses of clinically available topoisomerase inhibitors” (Eur J Med Chem, 2022):
Calls of active or inactive are those of the source. The rule behind the calls is not given here.

Experiments:
[1] = test system: HCT-15; assay: Induction of apoptosis in human HCT-15 cells assessed as change in c-caspase 7 level at 2 to 5 uM in presence of 0.2 uM etoposide and measured by Western blot analysis; assay type: functional, cell-based; conditions: dose 2-5 µM
[2] = Genotoxicity in human HCT-15 cells assessed as production of fragmented DNA tails at 2 to 5 uM and measured by comet assay; assay type: toxicity, cell-based; conditions: hct-15, 5 µM, dose 2-5 µM
[3] = Cytotoxicity against mouse M2-10B4 cells after 72 hrs by EZ-Cytox colorimetric assay; assay type: toxicity, cell-based
[4] = Genotoxicity in human HCT-15 cells assessed as production of fragmented DNA tails at 2 to 5 uM and measured in presence of 0.2 uM etoposide by comet assay; assay type: toxicity, cell-based; conditions: hct-15, 5 µM, dose 2-5 µM
[5] = target: DNA topoisomerase 2-alpha (Homo sapiens) (UniProt P11388); assay: Inhibition of recombinant human topoisomerase 2alpha assessed as relaxation of supercoiled plasmid pBR322 DNA at 100 uM by agarose gel electrophoresis (reference value: 82.2%)
[6] = Genotoxicity in human HCT-15 cells assessed as production of gamma-H2AX at 2 to 5 uM and measured in presence of 0.2 uM etoposide by western blot analysis; assay type: toxicity, cell-based; conditions: hct-15, 5 µM, dose 2-5 µM
[7] = Toxicity in mouse assessed as increase in d red cell distribution width at 4 mg/kg; assay type: organism-based; conditions: in vivo
[8] = Genotoxicity in human HCT-15 cells assessed as production of fragmented DNA tails at 2 to 5 uM and measured in presence of 1 nM camptothecin by comet assay; assay type: toxicity, cell-based; conditions: hct-15, 5 µM, dose 2-5 µM
[9] = target: DNA topoisomerase 2-alpha (Homo sapiens) (UniProt P11388); assay: Inhibition of recombinant human topoisomerase 2alpha assessed as relaxation of supercoiled plasmid pBR322 DNA at 20 uM by agarose gel electrophoresis (reference value: 48.4%)
[10] = test system: HCT-15; assay: Synergistic antiproliferative activity against human HCT-15 cells at 5 uM in presence of 1 nM camptothecin after 72 hrs by WST-1 assay; assay type: functional, cell-based
[11] = test system: Calf thymus DNA; assay: Binding affinity to calf thymus DNA assessed as DNA intercalation at 5 to 40 uM by fluorescence based EtBr-displacement assay; assay type: nucleic-acid assay; conditions: Bos taurus; dose 5-40 µM
[12] = target: DNA topoisomerase 2-alpha (Homo sapiens) (UniProt P11388); assay: Catalytic inhibitor of non-intercalative topoisomerase 2alpha (unknown origin) assessed as binding to minor groove at 250 to 500 uM measured by cleavage complex assay; conditions: dose 250-500 µM

DNA topoisomerase 2-alpha (Homo sapiens), sequence (P11388 whole entry): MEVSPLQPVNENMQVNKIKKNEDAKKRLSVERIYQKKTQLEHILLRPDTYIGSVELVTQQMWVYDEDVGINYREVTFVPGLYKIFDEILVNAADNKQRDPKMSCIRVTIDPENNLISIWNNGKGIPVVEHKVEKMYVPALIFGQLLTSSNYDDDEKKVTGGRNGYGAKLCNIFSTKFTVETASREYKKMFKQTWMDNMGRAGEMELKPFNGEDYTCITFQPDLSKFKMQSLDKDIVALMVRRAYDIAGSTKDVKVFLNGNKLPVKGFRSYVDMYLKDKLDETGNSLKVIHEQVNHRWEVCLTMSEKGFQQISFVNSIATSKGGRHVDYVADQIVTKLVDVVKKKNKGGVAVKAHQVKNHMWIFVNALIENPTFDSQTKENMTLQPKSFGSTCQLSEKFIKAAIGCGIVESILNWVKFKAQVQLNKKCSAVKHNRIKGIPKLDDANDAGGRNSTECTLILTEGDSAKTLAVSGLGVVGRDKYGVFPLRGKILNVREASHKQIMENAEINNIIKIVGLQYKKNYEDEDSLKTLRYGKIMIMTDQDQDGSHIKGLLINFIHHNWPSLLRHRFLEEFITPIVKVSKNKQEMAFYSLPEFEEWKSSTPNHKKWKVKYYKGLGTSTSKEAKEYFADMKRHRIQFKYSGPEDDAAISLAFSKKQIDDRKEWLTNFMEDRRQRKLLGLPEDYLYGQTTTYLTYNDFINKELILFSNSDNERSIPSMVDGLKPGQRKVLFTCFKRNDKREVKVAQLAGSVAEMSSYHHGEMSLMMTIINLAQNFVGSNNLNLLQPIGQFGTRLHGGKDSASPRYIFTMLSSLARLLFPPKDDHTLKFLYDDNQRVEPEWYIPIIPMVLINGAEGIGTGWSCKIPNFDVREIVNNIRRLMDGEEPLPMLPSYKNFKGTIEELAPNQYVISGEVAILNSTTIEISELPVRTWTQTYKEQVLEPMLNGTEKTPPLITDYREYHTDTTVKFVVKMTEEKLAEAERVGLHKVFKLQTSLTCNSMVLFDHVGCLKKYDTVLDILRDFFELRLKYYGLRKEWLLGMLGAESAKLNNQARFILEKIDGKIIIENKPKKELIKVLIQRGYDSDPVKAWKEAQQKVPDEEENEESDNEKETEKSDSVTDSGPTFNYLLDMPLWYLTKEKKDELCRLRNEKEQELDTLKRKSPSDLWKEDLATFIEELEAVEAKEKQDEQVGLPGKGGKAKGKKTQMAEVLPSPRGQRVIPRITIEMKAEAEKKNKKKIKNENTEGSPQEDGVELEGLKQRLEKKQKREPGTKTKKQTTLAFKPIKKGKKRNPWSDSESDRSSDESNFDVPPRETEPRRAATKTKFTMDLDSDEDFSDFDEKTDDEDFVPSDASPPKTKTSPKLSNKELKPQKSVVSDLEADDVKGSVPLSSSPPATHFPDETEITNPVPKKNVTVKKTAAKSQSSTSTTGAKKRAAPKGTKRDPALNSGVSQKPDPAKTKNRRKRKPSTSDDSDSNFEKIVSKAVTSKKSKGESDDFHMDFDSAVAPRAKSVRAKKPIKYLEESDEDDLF

- inhibition [5]: 85.8%
- inhibition [9]: 6.6%
- Activity [11]: Active
- inhibition [12]: Active
SMILES: O=C1c2ccccc2-c2nc(-c3ccc(Br)cc3)cc(-c3ccccc3)c21
- Activity [1]: Active
- Activity [2]: Non-Toxic
- IC50 at 72 h [3]: > 10 µM
- Activity [4]: Non-Toxic
- Activity [6]: Non-Toxic
- Activity [7]: Non-Toxic
- Activity [8]: Non-Toxic
- Activity [10]: Active
